Assay results reported in US20100093642A1, “NOVEL POLYPEPTIDES” (priority 2006, published 2010).
Converted amounts (≈) assume the structure as drawn. Read-outs that look alike come from different tables or passages of the source. Residues, ends and D or L forms follow the SMILES beside them. No end group written: not given here.

Experiments:
[1] = test system: Candida albicans (ATCC 10231)
Summary of the method: (§1)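 Broth microdilution in half-strength potato dextrose broth, final 2×10^5 spores per ml, peptides in two-fold dilutions from 50 μM to 0.1 μM final. Incubated in the dark without shaking at 25° C. (37° C. for C. albicans) for 48 h; MIC is lowest concentration giving 50% inhibition of visible growth, scored microscopically.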

[2] = test system: Botrytis cinerea 101; settings: 48 h
Summary of the method: as §1

[3] = test system: Saccharomyces cerevisiae; settings: 48 h
Summary of the method: as §1

[4] = test system: S. aureus (ATCC 9144); format: cell-based, Staphylococcus aureus
Summary of the method: (§2)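 Peptide fractions were incubated with actively growing bacteria in Mueller Hinton medium at a starting concentration of 3×10^4 cells per ml. Growth was monitored continuously in a Bioscreen C reader; polymyxin B served as reference.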

[5] = test system: murine colon carcinoma cell line CT26; format: cell-based; settings: 4 h
Protocol: The cytotoxic effects of the peptides on different human tumour cells were measured using the MTT colorimetric assay (Mosmann, 1983). MIT (3-(4-5-dimethylthiazol-2-yl)-2,5-diphenyl tetrazolium bromide) is a soluble tetrazolium salt yielding a yellow solution when prepared in media or salt solutions lacking phenol red. Dissolved MIT is converted to an insoluble purple formazan by cleavage of the tetrazolium ring by dehydrogenase enzymes. This water insoluble formazan can be solubilized using isopropanol or other solvents and the dissolved material is measured spectrophotometrically. The absorbance was measured as a function of concentration of converted dye. The conversion of the soluble dye to the insoluble purple formazan is utilized in assays for measurement of cell proliferation. […] We used this assay to measure the degree of cell death caused by the peptides.
CT26 and A20 were maintained in RPMI-1640 medium supplemented with 10% heat inactivated FBS and 1% L-glutamine in a humidified atmosphere of 5% CO2 at 37° C. The human embryonic fibroblast cell line, MRC-5, was cultured as a monolayer in MEM medium, under the same conditions as described for the tumour cell lines. CT26 and MRC-5 cells to be used in the assay were grown to a minimum of 75% confluency, trypsinated and split to single cell suspension, counted and centrifuged at 1500 rpm for 7 min. The cell pellet was resuspended to a concentration of 1-2×10^5 cells/ml in RPMI-1640 medium without FBS and L-glutamine-L-alanine (assay-medium). The A20 cells were grown in suspension and adjusted to a concentration of 6×10^5 cells/ml in assay medium. All cell lines were routinely tested for mycoplasma infection using a PCR-based mycoplasma detection kit (MycoSensor PCR Assay Kit, Stratagene), following the supplier's instructions. All cell lines were mycoplasma free.
The cytotoxicity was measured using the MTT method (Mosmann, 1983), with minor modifications. The adherent cells (CT26 and MRC-5) were applied in 96-well culture plates in a volume of 100 μl assay medium and incubated at 37° C. for 24 hours. The A20 cells were applied to the microtiter plates just prior to testing. The medium was removed and the cells were treated with 100 μl of peptide solution (concentrations ranging from 0 to 400 μg/ml), diluted in serum-free medium, and the plates were incubated at 37° C. for 4 hours. Cells treated with Triton X-100 (1%) were used as positive control (100% killing) whereas cells plus medium only were used as negative control. Following the incubation period, 10 and 20 μl MTT (5 mg/ml, dissolved in PBS) were added to each well in the adherent cells (CT26 and MRC-5) and the A20 cells, respectively. After further incubation for 2 hours, a volume of 70 μl of the supernatant was removed and 100 μl acid alcohol (0.04 M HCl in isopropanol) added to each well in the adherent cell lines. For the cells grown in suspension (A20), a volume of 130 μl of the supernatant was removed and 100 μl acid alcohol was added. The plates were placed on a shaker for 1 hour at room temperature and read spectrophotometrically at 590 nm in a microtiter plate reader (Thermomax Molecular devices, New Jersey, USA). Cell survival (%, averaging at least 2 parallels) and IC50 values were estimated as described above.

[6] = test system: Pseudomonas aeruginosa; format: cell-based
Summary of the method: as §2

[7] = yeast, more than 50% inhibition of visible growth, 48 h, 37° C.
[8] = yeast, more than 50% inhibition of visible growth

Molecule	Minimal inhibitory concentration (MIC), Candida albicans ([1]; ATCC 10231, 48 h) [µM]	Minimal inhibitory concentration (MIC), Botrytis cinerea [2] [µM]	Minimal inhibitory concentration (MIC), Saccharomyces cerevisiae [3] [µM]	Minimal inhibitory concentration, S. aureus ([4]; ATCC 9144) [µM]	IC50 [5] [µM]	Minimal inhibitory concentration, P. aeruginosa [6] [µM]	Minimal inhibitory concentration (MIC), Candida albicans [1, 7] [µM]	Minimal inhibitory concentration (MIC), Saccharomyces cerevisiae [3, 8] [µM]	Minimal inhibitory concentration, S. aureus ([4]; 37° C.) [µM]
CC[C@H](C)[C@H](NC(=O)CNC(=O)[C@H](CO)NC(=O)[C@H](CCCCN)NC(=O)[C@@H](NC(=O)[C@H](C)NC(=O)[C@H](Cc1c[nH]cn1)NC(=O)[C@H](CO)NC(=O)[C@@H](NC(=O)[C@H](CCCCN)NC(=O)[C@H](Cc1c[nH]cn1)NC(=O)[C@H](Cc1ccccc1)NC(=O)[C@@H](NC(=O)[C@H](CCCCN)NC(=O)[C@H](CCCCN)NC(=O)[C@H](Cc1ccccc1)NC(=O)C(Cc1c[nH]c2ccc(Br)cc12)NC(=O)CN)[C@@H](C)O)C(C)C)C(C)C)C(=O)N[C@@H](Cc1c[nH]cn1)C(=O)N[C@@H](C)C(=O)O (some centres unmarked) [P17 HC-Br (1-20)] (HELM PEPTIDE1{G.[O=C(C(Cc1c[nH]c2ccc(Br)cc12)N[*:1])[*:2]].F.K.K.T.F.H.K.V.S.H.A.V.K.S.G.I.H.A}$$$$V2.0; N-terminus and C-terminus assumed)	6.25 (≈ 14.7 µg/mL)	50 (≈ 117 µg/mL)	12.5 (≈ 29.3 µg/mL)	100 (≈ 234 µg/mL)	59.7	6.25 (≈ 14.7 µg/mL)	–	–	–
CC[C@H](C)[C@H](NC(=O)CNC(=O)[C@H](CO)NC(=O)[C@H](CCCCN)NC(=O)[C@@H](NC(=O)[C@H](C)NC(=O)[C@H](Cc1c[nH]cn1)NC(=O)[C@H](CO)NC(=O)[C@@H](NC(=O)[C@H](CCCCN)NC(=O)[C@H](Cc1c[nH]cn1)NC(=O)[C@H](Cc1ccccc1)NC(=O)[C@@H](NC(=O)[C@H](CCCCN)NC(=O)[C@H](CCCCN)NC(=O)[C@H](Cc1ccccc1)NC(=O)C(Cc1c[nH]c2ccc(Br)cc12)NC(=O)CN)[C@@H](C)O)C(C)C)C(C)C)C(=O)N[C@@H](Cc1c[nH]cn1)C(=O)N[C@@H](C)C(=O)NCC(=O)N[C@@H](CCC(N)=O)C(=O)N[C@@H](CCCNC(=N)N)C(=O)NCC(=O)N[C@@H](CS)C(=O)N[C@@H](CO)C(=O)N[C@@H](C)C(=O)N[C@@H](CC(C)C)C(=O)NCC(=O)N[C@@H](Cc1ccccc1)C(=O)O (some centres unmarked) [P17 HC-Br] (HELM PEPTIDE1{G.[O=C(C(Cc1c[nH]c2ccc(Br)cc12)N[*:1])[*:2]].F.K.K.T.F.H.K.V.S.H.A.V.K.S.G.I.H.A.G.Q.R.G.C.S.A.L.G.F}$$$$V2.0)	–	25 (≈ 83 µg/mL)	–	1.56 (≈ 5.18 µg/mL)	33.1	3.12 (≈ 10.4 µg/mL)	6.25 (≈ 20.8 µg/mL)	6.25 (≈ 20.8 µg/mL)	6.25 (≈ 20.8 µg/mL)
GWFKKTFHKVSHAVKSGIHA [P17 HC (1-20)]	6.25	100	12.5	100	–	6.25	–	–	–
GWFKKTFHKVSHAVKSGIHAGQRGCSALGF [P17 HC]	–	50	–	–	20.4	3.12	6.25	6.25	–
